Consider nine compounds from ChEMBL document CHEMBL3991601, “The target landscape of clinical kinase drugs” (Science, 2017).

Assay [1] deals with Adenosine kinase (Homo sapiens, UniProt P55263).
The target of assay [2] is Mitogen-activated protein kinase 7 (Homo sapiens, UniProt Q13164).
In assay [3] the target is T1, Glycogen phosphorylase, liver form (Homo sapiens, UniProt P06737).
T1 sequence (P06737 whole entry): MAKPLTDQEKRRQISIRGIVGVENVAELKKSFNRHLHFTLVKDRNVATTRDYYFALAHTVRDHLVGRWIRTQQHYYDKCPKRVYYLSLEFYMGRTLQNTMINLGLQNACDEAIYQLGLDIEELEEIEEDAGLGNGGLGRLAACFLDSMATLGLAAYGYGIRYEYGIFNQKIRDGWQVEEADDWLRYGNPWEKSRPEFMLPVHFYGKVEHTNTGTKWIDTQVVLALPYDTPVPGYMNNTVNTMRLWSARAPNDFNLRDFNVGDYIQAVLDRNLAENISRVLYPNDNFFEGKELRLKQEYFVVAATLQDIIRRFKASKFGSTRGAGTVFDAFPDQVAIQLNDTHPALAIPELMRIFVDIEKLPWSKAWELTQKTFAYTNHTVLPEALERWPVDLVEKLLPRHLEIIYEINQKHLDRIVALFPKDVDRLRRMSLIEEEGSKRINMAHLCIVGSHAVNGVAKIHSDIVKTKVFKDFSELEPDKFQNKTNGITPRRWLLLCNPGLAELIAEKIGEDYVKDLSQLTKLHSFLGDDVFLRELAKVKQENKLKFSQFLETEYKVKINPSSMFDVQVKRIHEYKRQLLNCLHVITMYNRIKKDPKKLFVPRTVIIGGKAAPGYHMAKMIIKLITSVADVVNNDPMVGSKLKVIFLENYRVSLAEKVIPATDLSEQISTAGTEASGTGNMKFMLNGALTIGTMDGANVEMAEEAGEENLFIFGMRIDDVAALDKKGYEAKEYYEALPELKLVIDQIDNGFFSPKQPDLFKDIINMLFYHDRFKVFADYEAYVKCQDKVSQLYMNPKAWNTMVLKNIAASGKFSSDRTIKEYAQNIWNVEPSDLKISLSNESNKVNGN
Format: subcellular, K-562, COLO 205, SK-N-BE(2) and MV-4-11, Cell lysate. Conditions: read-out: Kd apparent.

For assay [4], the target named is Protein kinase C beta type (Homo sapiens, UniProt P05771).
Assay [5] concerns the target DNA topoisomerase 2-beta (Homo sapiens, UniProt Q02880).
In assay [6] the target is Serine/threonine-protein kinase pim-1 (Homo sapiens, UniProt P11309).
Chain of Serine/threonine-protein kinase pim-1 (P11309 whole entry): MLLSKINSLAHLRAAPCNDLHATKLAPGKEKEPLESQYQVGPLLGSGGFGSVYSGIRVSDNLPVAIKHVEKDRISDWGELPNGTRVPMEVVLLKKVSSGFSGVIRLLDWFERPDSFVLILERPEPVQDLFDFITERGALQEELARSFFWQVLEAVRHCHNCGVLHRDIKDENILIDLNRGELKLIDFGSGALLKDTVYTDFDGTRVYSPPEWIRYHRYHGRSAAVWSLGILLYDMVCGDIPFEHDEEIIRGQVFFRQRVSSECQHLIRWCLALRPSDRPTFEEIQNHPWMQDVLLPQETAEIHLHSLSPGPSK
Assay [7] addresses T2, Delta(24)-sterol reductase (Homo sapiens, UniProt Q15392).
T2 sequence (Q15392 whole entry): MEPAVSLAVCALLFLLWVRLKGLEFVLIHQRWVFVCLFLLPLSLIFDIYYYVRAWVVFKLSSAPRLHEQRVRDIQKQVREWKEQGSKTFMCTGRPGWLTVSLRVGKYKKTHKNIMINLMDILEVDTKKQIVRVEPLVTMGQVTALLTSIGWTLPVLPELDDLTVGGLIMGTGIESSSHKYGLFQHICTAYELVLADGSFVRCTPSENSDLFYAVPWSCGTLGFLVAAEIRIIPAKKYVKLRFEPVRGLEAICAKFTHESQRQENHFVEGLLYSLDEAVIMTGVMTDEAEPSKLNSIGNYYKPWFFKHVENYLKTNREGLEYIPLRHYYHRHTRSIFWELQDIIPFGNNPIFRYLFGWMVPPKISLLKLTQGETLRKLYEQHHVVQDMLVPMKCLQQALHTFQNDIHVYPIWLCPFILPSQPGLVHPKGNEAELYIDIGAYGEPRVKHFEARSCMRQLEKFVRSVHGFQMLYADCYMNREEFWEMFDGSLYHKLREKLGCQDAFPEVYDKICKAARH

Assay [8] addresses T3, General transcription and DNA repair factor IIH helicase subunit XPD (Homo sapiens, UniProt P18074).
T3 sequence (P18074 whole entry): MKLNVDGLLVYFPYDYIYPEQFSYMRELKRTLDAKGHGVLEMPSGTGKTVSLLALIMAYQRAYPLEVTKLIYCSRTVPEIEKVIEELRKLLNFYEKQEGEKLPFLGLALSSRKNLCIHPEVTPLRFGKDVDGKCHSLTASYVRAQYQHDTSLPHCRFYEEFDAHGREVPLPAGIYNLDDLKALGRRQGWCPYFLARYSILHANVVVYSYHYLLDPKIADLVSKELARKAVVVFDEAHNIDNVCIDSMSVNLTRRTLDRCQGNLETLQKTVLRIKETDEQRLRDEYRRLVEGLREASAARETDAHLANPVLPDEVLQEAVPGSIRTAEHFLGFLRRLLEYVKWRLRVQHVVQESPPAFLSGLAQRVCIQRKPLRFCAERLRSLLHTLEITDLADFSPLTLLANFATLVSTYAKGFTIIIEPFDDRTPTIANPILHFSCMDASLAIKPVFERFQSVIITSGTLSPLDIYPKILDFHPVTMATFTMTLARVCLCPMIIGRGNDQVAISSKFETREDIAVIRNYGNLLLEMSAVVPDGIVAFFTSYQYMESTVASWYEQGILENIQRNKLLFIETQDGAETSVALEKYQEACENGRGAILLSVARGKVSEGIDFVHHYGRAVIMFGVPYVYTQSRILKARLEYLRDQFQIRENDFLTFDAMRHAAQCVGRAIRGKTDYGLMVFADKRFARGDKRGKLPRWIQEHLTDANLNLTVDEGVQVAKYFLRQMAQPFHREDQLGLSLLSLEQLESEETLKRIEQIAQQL
Conditions: read-out: Kd apparent; k-562, colo 205, sk-n-be(2) and mv-4-11.

For assay [9], the target named is Mitogen-activated protein kinase 1 (Homo sapiens, UniProt P28482).
In assay [10] the target is T4, EKC/KEOPS complex subunit TP53RK (Homo sapiens, UniProt Q96S44).
T4 sequence (Q96S44 whole entry): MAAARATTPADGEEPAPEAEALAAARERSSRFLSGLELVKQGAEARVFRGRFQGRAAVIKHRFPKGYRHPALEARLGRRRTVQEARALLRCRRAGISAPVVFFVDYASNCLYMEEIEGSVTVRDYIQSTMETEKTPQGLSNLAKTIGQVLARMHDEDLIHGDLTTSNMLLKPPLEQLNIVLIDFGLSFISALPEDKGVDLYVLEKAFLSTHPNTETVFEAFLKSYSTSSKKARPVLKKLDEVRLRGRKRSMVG

For assay [11], the target named is Serine/threonine-protein kinase SIK3 (Homo sapiens, UniProt Q9Y2K2).
Chain of Serine/threonine-protein kinase SIK3 (Q9Y2K2 whole entry): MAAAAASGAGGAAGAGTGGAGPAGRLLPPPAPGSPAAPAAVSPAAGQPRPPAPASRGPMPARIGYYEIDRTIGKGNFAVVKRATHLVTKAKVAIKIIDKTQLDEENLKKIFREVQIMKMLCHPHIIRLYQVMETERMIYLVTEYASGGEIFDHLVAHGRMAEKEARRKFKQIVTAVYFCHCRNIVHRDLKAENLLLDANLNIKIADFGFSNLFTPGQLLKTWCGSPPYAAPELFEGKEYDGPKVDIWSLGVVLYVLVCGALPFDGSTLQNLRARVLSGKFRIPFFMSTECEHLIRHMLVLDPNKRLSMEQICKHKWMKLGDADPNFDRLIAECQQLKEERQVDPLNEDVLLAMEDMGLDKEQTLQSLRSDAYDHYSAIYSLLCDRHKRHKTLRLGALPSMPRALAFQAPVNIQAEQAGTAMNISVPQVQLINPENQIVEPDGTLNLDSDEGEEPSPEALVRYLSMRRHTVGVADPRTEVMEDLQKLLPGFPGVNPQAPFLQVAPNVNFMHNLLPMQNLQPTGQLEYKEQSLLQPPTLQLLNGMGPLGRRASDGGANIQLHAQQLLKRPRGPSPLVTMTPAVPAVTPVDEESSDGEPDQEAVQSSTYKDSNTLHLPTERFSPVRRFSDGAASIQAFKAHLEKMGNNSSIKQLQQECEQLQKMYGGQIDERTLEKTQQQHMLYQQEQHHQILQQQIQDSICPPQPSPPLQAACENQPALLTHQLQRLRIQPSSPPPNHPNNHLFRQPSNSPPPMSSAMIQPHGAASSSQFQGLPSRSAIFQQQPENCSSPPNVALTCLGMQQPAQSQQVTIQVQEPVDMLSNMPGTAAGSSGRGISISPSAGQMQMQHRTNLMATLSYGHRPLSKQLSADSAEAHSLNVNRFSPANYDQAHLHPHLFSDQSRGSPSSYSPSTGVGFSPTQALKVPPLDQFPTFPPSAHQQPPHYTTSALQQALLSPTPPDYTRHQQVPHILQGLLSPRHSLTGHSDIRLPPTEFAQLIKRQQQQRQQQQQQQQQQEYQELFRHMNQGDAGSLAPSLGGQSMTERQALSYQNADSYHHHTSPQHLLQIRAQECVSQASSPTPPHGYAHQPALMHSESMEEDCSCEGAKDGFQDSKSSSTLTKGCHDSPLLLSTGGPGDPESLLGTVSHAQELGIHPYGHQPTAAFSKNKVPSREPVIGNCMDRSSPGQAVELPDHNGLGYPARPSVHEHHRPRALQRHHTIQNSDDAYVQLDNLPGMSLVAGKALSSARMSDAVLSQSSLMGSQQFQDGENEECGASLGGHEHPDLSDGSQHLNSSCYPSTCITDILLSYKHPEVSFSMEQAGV
Assay [12] concerns the target Proto-oncogene tyrosine-protein kinase Src (Homo sapiens, UniProt P12931).

Calls of active or inactive are those of the source. Some results are limits rather than exact numbers.
Also: in the data inactive means no Kd found up to 30 µM.

Chain of Proto-oncogene tyrosine-protein kinase Src (P12931 2-536 limits assumed): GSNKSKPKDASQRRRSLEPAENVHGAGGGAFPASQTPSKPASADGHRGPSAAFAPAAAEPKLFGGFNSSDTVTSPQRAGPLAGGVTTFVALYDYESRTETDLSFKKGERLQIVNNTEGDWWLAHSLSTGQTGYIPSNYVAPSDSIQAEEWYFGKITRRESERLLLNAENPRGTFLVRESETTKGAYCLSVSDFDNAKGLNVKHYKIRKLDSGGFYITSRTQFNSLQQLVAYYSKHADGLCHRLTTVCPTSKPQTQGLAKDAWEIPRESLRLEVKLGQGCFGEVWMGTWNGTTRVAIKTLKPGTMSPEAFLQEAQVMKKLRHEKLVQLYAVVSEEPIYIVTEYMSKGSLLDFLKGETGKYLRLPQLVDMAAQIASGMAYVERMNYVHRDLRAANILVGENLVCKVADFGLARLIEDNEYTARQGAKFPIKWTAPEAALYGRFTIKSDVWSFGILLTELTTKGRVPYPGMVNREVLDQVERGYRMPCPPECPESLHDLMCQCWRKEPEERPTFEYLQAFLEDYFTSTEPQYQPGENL
Chain of DNA topoisomerase 2-beta (Q02880 whole entry): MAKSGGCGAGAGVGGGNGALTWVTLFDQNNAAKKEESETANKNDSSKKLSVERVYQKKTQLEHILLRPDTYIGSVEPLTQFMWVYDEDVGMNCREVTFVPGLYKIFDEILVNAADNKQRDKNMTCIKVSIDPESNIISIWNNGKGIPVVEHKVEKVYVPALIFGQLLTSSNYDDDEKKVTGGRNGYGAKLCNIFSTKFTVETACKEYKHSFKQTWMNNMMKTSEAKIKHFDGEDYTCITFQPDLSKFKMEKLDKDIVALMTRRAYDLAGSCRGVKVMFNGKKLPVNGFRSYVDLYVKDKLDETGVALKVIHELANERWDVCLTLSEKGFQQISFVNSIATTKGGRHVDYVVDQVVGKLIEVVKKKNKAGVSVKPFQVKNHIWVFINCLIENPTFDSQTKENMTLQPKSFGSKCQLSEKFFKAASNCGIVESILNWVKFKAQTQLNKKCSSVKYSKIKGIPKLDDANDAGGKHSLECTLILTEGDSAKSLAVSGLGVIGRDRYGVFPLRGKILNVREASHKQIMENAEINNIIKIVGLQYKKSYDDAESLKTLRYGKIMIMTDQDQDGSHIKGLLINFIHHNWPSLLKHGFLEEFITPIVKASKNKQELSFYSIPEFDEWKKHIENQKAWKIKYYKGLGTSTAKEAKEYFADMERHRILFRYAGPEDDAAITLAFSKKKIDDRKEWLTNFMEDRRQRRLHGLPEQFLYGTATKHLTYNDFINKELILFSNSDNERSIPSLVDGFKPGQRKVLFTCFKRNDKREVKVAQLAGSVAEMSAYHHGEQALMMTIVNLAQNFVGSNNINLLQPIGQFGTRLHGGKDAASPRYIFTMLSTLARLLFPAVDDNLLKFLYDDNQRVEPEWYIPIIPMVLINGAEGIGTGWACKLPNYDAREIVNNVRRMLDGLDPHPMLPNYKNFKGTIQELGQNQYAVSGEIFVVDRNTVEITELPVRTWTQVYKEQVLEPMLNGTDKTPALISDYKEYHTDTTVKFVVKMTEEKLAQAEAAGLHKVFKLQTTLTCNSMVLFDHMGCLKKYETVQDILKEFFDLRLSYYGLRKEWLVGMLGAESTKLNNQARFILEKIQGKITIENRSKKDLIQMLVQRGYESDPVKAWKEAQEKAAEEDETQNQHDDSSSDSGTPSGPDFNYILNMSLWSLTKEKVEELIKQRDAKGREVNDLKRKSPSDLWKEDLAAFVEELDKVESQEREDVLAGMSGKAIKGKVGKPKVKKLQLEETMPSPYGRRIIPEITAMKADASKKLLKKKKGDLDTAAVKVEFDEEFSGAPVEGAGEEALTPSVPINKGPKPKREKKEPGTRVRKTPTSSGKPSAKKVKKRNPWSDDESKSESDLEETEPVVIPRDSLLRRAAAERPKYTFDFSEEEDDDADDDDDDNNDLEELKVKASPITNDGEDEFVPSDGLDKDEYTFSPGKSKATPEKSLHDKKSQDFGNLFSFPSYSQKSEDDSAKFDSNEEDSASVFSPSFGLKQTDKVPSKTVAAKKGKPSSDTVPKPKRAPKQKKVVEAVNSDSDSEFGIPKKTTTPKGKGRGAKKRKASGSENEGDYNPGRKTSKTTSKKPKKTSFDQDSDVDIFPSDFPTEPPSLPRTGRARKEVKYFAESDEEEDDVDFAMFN
Chain of Mitogen-activated protein kinase 7 (Q13164 whole entry): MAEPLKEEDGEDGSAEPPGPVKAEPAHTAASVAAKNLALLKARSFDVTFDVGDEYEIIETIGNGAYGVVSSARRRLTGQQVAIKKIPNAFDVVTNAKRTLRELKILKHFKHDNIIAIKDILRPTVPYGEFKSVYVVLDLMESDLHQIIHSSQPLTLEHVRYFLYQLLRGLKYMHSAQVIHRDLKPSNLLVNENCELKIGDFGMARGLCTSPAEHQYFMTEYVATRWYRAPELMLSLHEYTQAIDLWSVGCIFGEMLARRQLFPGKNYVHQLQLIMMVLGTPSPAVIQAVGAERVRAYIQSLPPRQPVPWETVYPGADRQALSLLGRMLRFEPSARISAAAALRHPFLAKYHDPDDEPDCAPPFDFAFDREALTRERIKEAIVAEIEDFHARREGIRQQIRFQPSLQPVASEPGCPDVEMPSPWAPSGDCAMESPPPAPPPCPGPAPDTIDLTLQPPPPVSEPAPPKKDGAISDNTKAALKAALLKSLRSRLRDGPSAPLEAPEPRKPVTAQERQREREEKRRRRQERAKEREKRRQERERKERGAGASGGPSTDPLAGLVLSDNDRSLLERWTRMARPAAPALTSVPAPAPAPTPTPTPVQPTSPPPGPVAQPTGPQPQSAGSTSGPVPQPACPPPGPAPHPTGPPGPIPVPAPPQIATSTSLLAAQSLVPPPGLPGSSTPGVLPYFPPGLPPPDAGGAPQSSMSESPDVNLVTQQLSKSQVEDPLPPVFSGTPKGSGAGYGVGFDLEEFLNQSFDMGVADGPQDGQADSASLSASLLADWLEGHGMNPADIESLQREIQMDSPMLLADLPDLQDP
Chain of Adenosine kinase (P55263 whole entry): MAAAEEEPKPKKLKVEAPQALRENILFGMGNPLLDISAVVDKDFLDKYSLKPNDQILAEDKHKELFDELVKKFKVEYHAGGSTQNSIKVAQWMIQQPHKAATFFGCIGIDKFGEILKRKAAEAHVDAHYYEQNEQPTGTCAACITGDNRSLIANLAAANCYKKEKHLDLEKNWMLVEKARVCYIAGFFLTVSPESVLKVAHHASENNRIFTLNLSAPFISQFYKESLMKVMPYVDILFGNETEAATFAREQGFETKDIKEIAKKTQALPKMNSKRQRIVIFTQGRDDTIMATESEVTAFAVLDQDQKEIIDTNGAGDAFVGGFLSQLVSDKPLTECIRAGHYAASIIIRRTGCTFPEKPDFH

Regarding `COc1cc2nccc(Oc3ccc(NC(=O)NC4CC4)c(Cl)c3)c2cc1C(N)=O` [LENVATINIB], the Kd in assay [1], in assay [2], in assay [3], in assay [4], in assay [5] and in assay [6] was > 30 µM (inactive) each time. Besides, the Kd in assay [7], in assay [8], in assay [9], in assay [10] and in assay [11] was > 30 µM (inactive) each time.

With `CC(C)Nc1cc(-c2c[nH]c(C(=O)N[C@H](CO)c3cccc(Cl)c3)c2)c(Cl)cn1` [ULIXERTINIB], the Kd in [1], in assay [12], in assay [2], in [3], in assay [4] and in [5] was > 30 µM (inactive) throughout. In addition, the Kd in assay [6], in assay [7], in [8], in assay [10] and in assay [11] was > 30 µM (inactive) throughout.

For the compound `O=C1NC(=O)/C(=C/c2ccc3nccc(-c4ccncc4)c3c2)S1` [GSK-1059615], the Kd was > 30 µM (inactive) in assay [12]; > 30 µM (inactive) in assay [2]; > 30 µM (inactive) in [3]; > 30 µM (inactive) in assay [4]; > 30 µM (inactive) in [5]; 0.205 µM (active) in assay [6]. In addition, the Kd is > 30 µM (inactive) in assay [7]; > 30 µM (inactive) in assay [8]; > 30 µM (inactive) in assay [9]; 0.058 µM (active) in assay [10]; > 30 µM (inactive) in [11].

Turning to `CNC(=O)c1cc(Oc2ccc(NC(=O)Nc3ccc(Cl)c(C(F)(F)F)c3)c(F)c2)ccn1` [REGORAFENIB], the Kd in assay [1], in assay [12], in assay [2], in [3], in [4] and in assay [5] was > 30 µM (inactive) each time. Moreover, the Kd in assay [6], in [7], in assay [9], in assay [10] and in assay [11] was > 30 µM (inactive) throughout.

Regarding `COc1cc2nccc(Oc3ccc(NC(=O)Nc4cc(C)on4)c(Cl)c3)c2cc1OC` [TIVOZANIB], the Kd in assay [1], in [2], in [3], in [4], in assay [5] and in assay [6] was > 30 µM (inactive) each time. The Kd in [7], in assay [8], in assay [9], in assay [10] and in [11] was > 30 µM (inactive) in each case.

For the compound `CC[C@@H]1C(=O)N(C)c2cnc(Nc3ccc(C(=O)N[C@H]4CC[C@H](N5CCN(CC6CC6)CC5)CC4)cc3OC)nc2N1C(C)C` [VOLASERTIB], the Kd in [1], in assay [12], in [2], in assay [3], in assay [4] and in assay [5] was > 30 µM (inactive) throughout. For the same compound, the Kd in assay [6], in assay [7], in assay [9], in assay [10] and in [11] was > 30 µM (inactive) throughout.

`CC[C@H](Nc1ncnc2[nH]cnc12)c1nc2cccc(F)c2c(=O)n1-c1ccccc1` [IDELALISIB]: the Kd in [1], in [12], in [2], in [3], in assay [4] and in assay [5] was > 30 µM (inactive) in each case. Further, the Kd in assay [6], in assay [7], in assay [9], in [10] and in assay [11] was > 30 µM (inactive) throughout.

As for `C1=C/COCc2cc(ccc2OCCN2CCCC2)Nc2nccc(n2)-c2cccc(c2)COC/1` [PACRITINIB], the Kd in assay [1] was > 30 µM (inactive); in assay [12], > 30 µM (inactive); in assay [3], > 30 µM (inactive); in assay [4] it was 7.24 µM (active); in assay [5], > 30 µM (inactive); in [6] it was > 30 µM (inactive). For the same compound, the Kd in assay [7], in assay [8], in assay [9], in assay [10] and in assay [11] was > 30 µM (inactive) in each case.

On to `COCCNCc1ccc(-c2cc3nccc(Oc4ccc(NC(=S)NC(=O)Cc5ccc(F)cc5)cc4F)c3s2)nc1` [GLESATINIB], for which the Kd in assay [1], in [2], in assay [3], in assay [4], in [5] and in [6] was > 30 µM (inactive) each time. Also, the Kd in assay [7], in assay [8], in [9], in [10] and in assay [11] was > 30 µM (inactive) each time.
